Structures can show the parent of a compound that is named as a salt. Where two headings read alike, the source gives them in different places. Marks after values point to notes of the source that are not given here.
Experiments:
[1] = biological target: T1, M1 muscarinic receptors expressed in CHO cells (Homo sapiens, UniProt P11229); test: [3H]-arachidonic acid release screen with and without ACh and modulator; assay type: cell-based; conditions: for Ratio of response of ACh with modulator to response of ACh alone, 0.1 μM ACh / Ratio of response of ACh with modulator to response of ACh alone, 100 μM ACh / Stimulation of [3H]AA release, No ACh (fraction of stimulation above the control): 10 μM modulator, Table 1; for Modulation of ACh activity (in words): [3H]AA release; for Modulation of ACh activity (in words) / Intrinsic agonist activity (in words): modulator 10 μM; for Intrinsic agonist activity (in words): without ACh
T1 construct: expressed in transfected cells; host or cells: CHO (CHO-hM1, stably transfected)
T1 sequence (P11229 1-460): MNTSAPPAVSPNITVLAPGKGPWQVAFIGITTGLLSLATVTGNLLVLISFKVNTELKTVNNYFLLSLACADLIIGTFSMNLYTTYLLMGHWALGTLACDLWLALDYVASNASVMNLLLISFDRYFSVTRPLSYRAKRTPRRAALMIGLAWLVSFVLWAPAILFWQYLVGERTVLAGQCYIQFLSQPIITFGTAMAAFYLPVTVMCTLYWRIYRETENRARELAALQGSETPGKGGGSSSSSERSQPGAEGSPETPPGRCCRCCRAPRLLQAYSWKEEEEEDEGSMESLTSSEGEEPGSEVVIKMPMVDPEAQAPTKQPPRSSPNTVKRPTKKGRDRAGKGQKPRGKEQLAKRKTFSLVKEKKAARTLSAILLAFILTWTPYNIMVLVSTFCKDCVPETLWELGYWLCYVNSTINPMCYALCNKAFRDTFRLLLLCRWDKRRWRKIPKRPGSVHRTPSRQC
Description: CHO cells expressing human M1 muscarinic receptors were cultured at 37° C. in a 5% CO2 atmosphere in F12 medium supplemented with 5% fetal bovine serum, 100 units/mL penicillin, and 100 μg/mL streptomycin.
(§1) Measurement of [^3H]AA release was performed. Stably transfected CHO-hM1 or CHO-hM3 cells were seeded on 24-well plates (Greiner Bio-One GmbH, Frickenhausen, Germany) at a density of 5.0×10^4 cells/well in 0.5 ml of F-12 medium. Cells were incubated until they attached (approximately 3 h), followed by the addition of [^3H]AA to a final concentration of 0.05 μCi of [^3H]AA per well. The cells were then grown for 16 to 20 h before the assay was performed. [^3H]AA release was measured in Eagle's basal medium with 20 mM HEPES and 2 mg/ml fatty acid-free bovine serum albumin (EM-BSA). Cells were rinsed twice with EM-BSA, followed by the addition of EM-BSA media containing experimental agents and incubated for 1 h at 37° C. The assay was terminated by aspiration of the media, and the amount of [^3H]AA released was determined by liquid scintillation counting (Beckman-Coulter LS6500).
For some assays, pretreatment with phenoxybenzamine (POB) was employed, as indicated, to reduce the number of available receptors per cell. Stock POB was made up at 10 mM in ethanol and stored at −20° C. Each well was pretreated with 0.5 ml of the appropriate concentration in PBS with 1 mM CaCl2 and 1 mM MgCl2 (PBS++) for 30 min at 37° C., followed by 5 washes with PBS++. After pretreatment, the normal protocol was followed as above.
(§2) Tabulated [^3H]AA release data are represented as a fraction of maximal release in the presence of 100 μM ACh or as the fraction of release elicited by the appropriate concentration of ACh alone, as indicated dose-response curves were normalized to the maximal response of ACh without allosteric ligand. Some response curves were analyzed using the empirical four-parameter equation: […]
Disintegration per minute (DPM) values for a single compound were obtained in triplicate, and each compound was evaluated on three separate 24-well plates. The mean values for each condition from each of the three 24-well plates were used for the statistical analysis. The baseline mean was subtracted from each value, then normalized to the mean response produced by 100 μM ACh (set at 1.0). Statistical analyses were completed on the normalized values via one-way repeated measures ANOVA with Tukey's post hoc test. Statistically significant differences are noted as follows: *, p<0.05; **, p<0.01; ***, p<0.001.

[2] = biological target: T1, M1 muscarinic receptors expressed in CHO cells; test: Full ACh dose-response curves of [3H]AA release fitted to the allosteric operational model; assay type: cell-based; conditions: for Intrinsic Efficacy-B, τB / Activation cooperativity, A-B, β / Binding cooperativity, A-B, α: allosteric operational model; for Intrinsic Efficacy-B, τB: Em set to 2.0; for Activation cooperativity, A-B, β / Binding cooperativity, A-B, α: with ACh; for Effect on ACh potency and efficacy in full ACh dose-response curves (in words): modulator 10 μM
Description: as §1, §2
where X is the log of the concentration of the ligand used, Y is the amount of response, C50 is the concentration of the ligand that produces 50% of the maximal effect, Top and Bottom are the top and bottom plateaus of the curve, respectively, and n is related to the Hill slope for the curve. In some cases, families of response curves were analyzed according to the allosteric operational model:
where EM is the maximal response; A is the concentration of ACh; B is the concentration of the allosteric ligand; τA and τB represent the intrinsic efficacies of A and B, respectively; KA and KB are the equilibrium dissociation constants of A and B, respectively; and α and β represent the cooperativities between A and B in terms of binding and activation, respectively. Curve-fitting was carried out with GraphPad Prism, version 5.0 or 6.0 (San Diego CA).

[3] = test system: wild-type zebrafish larvae; test: Maximum tolerated concentration (MTC) determination in zebrafish larvae; assay type: in vivo, Danio rerio; conditions: for Maximum Tolerated Concentration: after 24-hour exposure, Table 3
Description: Determination of maximum tolerated concentration was completed by placing 5 days post fertilization (dpf) wild-type zebrafish larvae in a 24 well plate at 6 fish per well, and one compound concentration per well. […] Death was determined by the absence of heartbeat. Additional endpoints were used to assess toxicity at non-lethal concentrations such as startle capacity (poke stimulus), abnormalities in swimming behavior (loss of dorsoventral balance), and gross morphological deformities (bent body). […] The MTC determination was used to select three doses of each compound (low, medium, high dose) to be used in behavioral assays.

[4] = test system: wild-type zebrafish larvae; test: General locomotor assay in zebrafish larvae (locomotor activity, repetitive behaviors); assay type: in vivo, Danio rerio; conditions: for Effect on locomotor activity, angular velocity and turn angle (in words): spontaneous swimming period
Description: Five days post fertilization (dpf) zebrafish larvae were exposed to a range of nonlethal concentrations of the compounds in a 24-well plate with appropriate controls. The movement of each larval zebrafish was monitored with the Noldus behavior recording system (Noldus Information Technology, Leesburg VA) and quantified using EthoVision® XT 15 software (Noldus Information Technology, Leesburg VA). The plate was immediately placed in the incubator for a 30-minute exposure period. After 30 minutes, the plate was transferred to the Noldus system and swimming behavior was recorded in 100% light for 30 minutes to measure spontaneous swimming behavior. The light was switched off for 10 minutes (dark period) and then switched on for 10 minutes (light period), which was then repeated for two additional cycles. In total, the larvae were exposed to three cycles of alternating 10-minute dark and light periods (100% darkness-to-100% light). […]
All data for exposure and the behavioral end points were analyzed by one-way ANOVA (factor: drug conc) followed by a Dunnett's multiple comparisons test for post hoc significance between drug concentration and control group. Statistically significant differences are noted as follows: *, p<0.05; **, p<0.01; ***, p<0.001.

[5] = best-fit parameter, read-out: Affinity-B, KB (converted)
[6] = Table 3, test concentration not given, N = 12

Row | Structure (SMILES) | Ratio of response of ACh with modulator to response of ACh alone, 0.1 μM ACh [1] | Ratio of response of ACh with modulator to response of ACh alone, 100 μM ACh [1] | Stimulation of [3H]AA release, No ACh (fraction of stimulation above the control) [1] | Modulation of ACh activity (in words) [1] | Intrinsic agonist activity (in words) [1] | Intrinsic Efficacy-B, τB ([2]; best-fit parameter) | Activation cooperativity, A-B, β ([2]; best-fit parameter) | Binding cooperativity, A-B, α ([2]; best-fit parameter) | Kb [2, 5] [µM] | Effect on ACh potency and efficacy in full ACh dose-response curves (in words) [2] | Maximum Tolerated Concentration [3] [µM] | Effect on locomotor activity, angular velocity and turn angle (in words) [4] | Affinity-B, KB ([2]; best-fit parameter, values given are logarithms (cf. logKA in footnote)) | Kb ([2]; read-out: affinity for M1 muscarinic receptors (KB)) [µM] | Signs of toxicity (in words) ([3]; concentrations up to 30 μM, the highest concentration tested) | Concentration with significant effects on locomotor activity and repetitive behaviors ([4]; compared with BQCA) [µM] | Angular Velocity [4, 6] | Total Distance Moved [4, 6] | Variance of Turn Angle [4, 6]
1 | CCN(CC)CCOc1ccc(CN2C(=O)C(=O)c3ccccc32)cc1 [Compound 7, 1-(4-(2-(diethylamino)ethoxy)benzyl)indoline-2,3-dione] | 0.08 ± 0.02 | 1.11 ± 0.06 | 0.02 ± 0.01 | primarily decreased potency and slightly enhanced the efficacy of ACh activity | lacked intrinsic activity at the 10 μM concentration | 0.0317 ± 0.0205 | 0.991 ± 0.120 | 0.180 ± 0.0855 | 0.631 | decreased ACh potency with little impact on ACh efficacy | 10 | did not significantly alter locomotor activity, angular velocity, and turn angle |  |  |  |  |  |  | 
2 | COc1c(I)cc(CN2C(=O)C(=O)c3ccccc32)cc1I [Compound 8a, 1-(3,5-diiodo-4-methoxybenzyl)indoline-2,3-dione] | 2.64 ± 0.10 | 1.62 ± 0.06 | 0.24 ± 0.04 | significant enhancement of ACh activity | lacked intrinsic activity at the 10 μM concentration | 0.174 ± 0.0289 | 3.26 ± 0.431 | 0.689 ± 0.241 |  | dramatically enhanced ACh efficacy | 30 |  | −6.26 ± 0.152 | 0.589 | did not produce any signs of toxicity | 1 |  |  | 
3 | COc1c(Br)cc(CN2C(=O)C(=O)c3ccccc32)cc1Br [Compound 8c, 1-(3,5-dibromo-4-methoxybenzyl)indoline-2,3-dione] | 2.15 ± 0.05 | 1.58 ± 0.01 | 0.23 ± 0.00 |  |  | 0.328 ± 0.0555 | 3.89 ± 0.610 | 0.980 ± 0.388 | 2.95 | dramatically enhanced ACh efficacy | 30 |  |  |  |  |  |  |  | 
4 | COc1cccc(CN2C(=O)C(=O)c3ccccc32)c1 [Compound 8j, 1-(3-methoxybenzyl)indoline-2,3-dione] | 1.06 ± 0.15 | 0.96 ± 0.10 | 0.02 ± 0.02 |  |  |  |  |  |  | enhances ACh potency |  | significantly decreased locomotor activity and increased angular velocity and absolute turn angle |  |  |  |  |  |  | 
5 | CCN(CC)CCOc1c(Br)cc(CN2C(=O)C(=O)c3ccccc32)cc1Br [Compound 8l, 1-(3,5-dibromo-4-(2-(diethylamino)ethoxy)benzyl)indoline-2,3-dione hydrochloride] | 0.19 ± 0.06 | 0.87 ± 0.06 | 0.04 ± 0.00 | results only in a decrease in ACh activity |  |  |  |  |  | decreased ACh potency with little impact on ACh efficacy | 10 |  |  |  |  |  | 184.7 ± 17.0*** % of control | 33.5 ± 4.4** % of control | 166.1 ± 12.5*** % of control

— US20260109674A1, “ALLOSTERIC MODULATION OF MUSCARINIC ACETYLCHOLINE RECEPTOR EFFICACY” (The University of Toledo, priority 2022, published 2026)
